Where “and” joins values, the source holds several entries; their conditions need not be identical. Identical values can stand only once.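 The compound was tested at five concentrations on cells cultured in 96-well plates, with a 48-hour exposure period. Here, GI50 denotes the concentration required for 50% inhibition of growth. The concentration for full growth arrest is given as TGI.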
What was measured:
Experiment in all cases: growth of human tumour cells (NCI), 48 h
[1] = tested on: HCC-2998 colon
[2] = tested on: OVCAR-5 ovarian
[3] = tested on: A498 renal
[4] = tested on: SK-MEL-2 melanoma
[5] = tested on: NCI-H522 lung
[6] = tested on: CAKI-1 renal
[7] = tested on: NCI-H23 lung
[8] = tested on: OVCAR-3 ovarian
[9] = tested on: U251 CNS
[10] = tested on: CCRF-CEM leukemia
[11] = tested on: HL-60(TB) leukemia
[12] = tested on: UO-31 renal
[13] = tested on: HCT-116 colon
[14] = tested on: HS 578T breast

Compound | TGI [1] | TGI [2] | TGI [3] | TGI [4] | TGI [5] | TGI [6] | TGI [7] | TGI [8] | TGI [9] | TGI [10] | TGI [11] | TGI [12] | TGI [13] | TGI [14] | GI50 [2] [µM] | GI50 [3] [µM] | GI50 [6] [µM] | GI50 [8] [µM] | GI50 [11] | GI50 [12]
Cn1cc2c(=O)n3ncn(-c4ccc(Br)cc4)c3nc2n1 | > 100 µM | > 100 µM | > 100 µM | > 100 µM | > 100 µM | > 100 µM | > 100 µM | > 100 µM | > 100 µM | > 100 µM | > 100 µM | > 100 µM | > 100 µM | > 100 µM |  |  |  |  |  | 
CC(=O)n1nc(-c2nc3ccccc3nc2Cl)cc1Cl | > 100 µM | > 92.3 µM | > 100 µM | > 100 µM | 31.2 µM | 21.6 µM | 49.6 µM | 68.2 µM | > 77.6 µM | 7.73 µM | 35 µM | 4.79 µM | 25.4 µM | > 91.7 µM |  |  |  |  |  | 
CN(C)CCOC1(Cc2ccc(Cl)cc2Cl)CCC(C(C)(C)C)CC1 (stereo not given) | 3.37 µM and 3.23 µM | 5.54 µM and 3.55 µM | 5.18 µM and 3.95 µM | 3.89 µM and 3.33 µM | 3.44 µM and 3.85 µM | 4.35 µM and 10.6 µM | 5.74 µM and 4.15 µM | 3.07 µM and 3.92 µM | 2.9 µM and 3.45 µM | 4.69 µM and 5.32 µM | 3.61 µM and 3.92 µM | 6.27 µM and 2.83 µM | 3.13 µM and 3.45 µM | 5.2 µM and 5.27 µM | 2.09 | 2.07 | 5.18 | 2.03 | 1.45 µM and 2.08 µM | 2.17 µM and 1.45 µM
N#CC1=C(C#N)/C(=C(\C#N)C(C#N)C#N)N=C1N | > 100 µM | > 93.9 µM | 65.4 µM | 31.6 µM | 47.7 µM | > 100 µM | > 100 µM | > 100 µM | > 100 µM | 50.7 µM | 39.1 µM | > 100 µM | > 100 µM | > 100 µM |  |  |  |  |  | 
COC1C=C(NCC2(CO)CCC2)NC(N)=N1 (stereo not given) | > 100 µM | > 100 µM | > 100 µM | > 100 µM | > 100 µM | > 100 µM | > 100 µM | > 100 µM | > 100 µM | > 100 µM | > 100 µM | > 100 µM | > 100 µM | > 100 µM |  |  |  |  |  | 
CCC(CC)C(=O)OC[n+]1cccc(-c2c(COC(=O)NC(C)C)c(COC(=O)NC(C)C)c3n2CCC3)c1 | > 100 µM | > 100 µM | > 100 µM | > 100 µM | > 100 µM | > 100 µM | > 100 µM | > 100 µM | > 100 µM | > 100 µM | > 100 µM | > 100 µM | > 100 µM | > 100 µM |  |  |  |  |  | 
COc1ccc2c(c1)N(C(C)=O)CN1C(=O)CCC21 (stereo not given) | > 100 µM | > 100 µM | > 100 µM | > 100 µM | > 100 µM | > 100 µM | > 100 µM | > 100 µM | > 100 µM | > 100 µM | > 100 µM | > 100 µM | > 100 µM | > 100 µM |  |  |  |  |  | 
O=c1oc2ccccc2cc1-c1nnc(-c2ccccc2)s1 | > 100 µM | > 100 µM | 43.6 µM | > 100 µM | > 100 µM | > 100 µM | > 100 µM | > 58.5 µM | 26.4 µM | > 100 µM | 3.5 µM | > 100 µM | > 100 µM | > 100 µM |  |  |  |  |  | 
CCOC(=O)C1=C(C)N(C)C(=S)NC1c1cccc(O)c1 (stereo not given) | 92.6 µM | > 100 µM | 84 µM | 97.2 µM | > 100 µM | > 100 µM | > 100 µM | > 100 µM | > 100 µM | 72.1 µM | 64 µM | > 100 µM | > 100 µM | > 100 µM |  |  |  |  |  | 
Cc1ccc(S(=O)(=O)NC(=O)NCC(=O)NCC(=O)O)cc1 | > 100 µM | > 100 µM | > 100 µM | > 100 µM | > 100 µM | > 100 µM | > 100 µM | > 100 µM | > 100 µM | > 100 µM | > 100 µM | > 100 µM | > 100 µM | > 100 µM |  |  |  |  |  | 
CC(NC(=O)/C(C#N)=C/c1ccc2[nH]ccc2c1)c1ccccc1 (stereo not given) | 34 µM | 37.3 µM | 32.1 µM | 39.9 µM | 25.7 µM | 66 µM | 43.3 µM | 58 µM | 29.4 µM | 45.8 µM | 54.8 µM | 28.3 µM | 28.1 µM | 66.4 µM |  |  |  |  |  | 
